From PubChem BioAssay (NCI)
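Following 48 hours of exposure in 96-well plates, responses at five concentrations were used to interpolate endpoints linearly. TGI denotes the concentration required for complete inhibition of growth.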

Assays:
Experiment in all cases: DTP human tumour cell line panel, 48 h
786-0 renal = test system: 786-0 renal
A549 NSCLC = test system: A549 NSCLC
ACHN renal = test system: ACHN renal
BT-549 breast = test system: BT-549 breast
COLO 205 colon = test system: COLO 205 colon
DU-145 prostate = test system: DU-145 prostate
EKVX NSCLC = test system: EKVX NSCLC
HCC-2998 colon = test system: HCC-2998 colon
HCT-116 colon = test system: HCT-116 colon
HCT-15 colon = test system: HCT-15 colon
HOP-62 NSCLC = test system: HOP-62 NSCLC
HS 578T breast = test system: HS 578T breast
HT29 colon = test system: HT29 colon
IGROV1 ovarian = test system: IGROV1 ovarian
K-562 leukemia = test system: K-562 leukemia
KM12 colon = test system: KM12 colon
LOX IMVI melanoma = test system: LOX IMVI melanoma
M14 melanoma = test system: M14 melanoma
MALME-3M melanoma = test system: MALME-3M melanoma
MCF7 breast = test system: MCF7 breast
MDA-MB-231 breast = test system: MDA-MB-231 breast
MDA-MB-435 = test system: MDA-MB-435
MOLT-4 leukemia = test system: MOLT-4 leukemia
NCI-H23 lung = test system: NCI-H23 lung
NCI-H460 lung = test system: NCI-H460 lung
NCI-H522 lung = test system: NCI-H522 lung
NCI/ADR-RES ovarian = test system: NCI/ADR-RES ovarian
OVCAR-3 ovarian = test system: OVCAR-3 ovarian
OVCAR-4 ovarian = test system: OVCAR-4 ovarian
OVCAR-5 ovarian = test system: OVCAR-5 ovarian
OVCAR-8 ovarian = test system: OVCAR-8 ovarian
PC-3 prostate = test system: PC-3 prostate
RPMI-8226 leukemia = test system: RPMI-8226 leukemia
SF-268 CNS = test system: SF-268 CNS
SF-539 CNS = test system: SF-539 CNS
SK-MEL-2 melanoma = test system: SK-MEL-2 melanoma
SK-MEL-28 melanoma = test system: SK-MEL-28 melanoma
SK-MEL-5 melanoma = test system: SK-MEL-5 melanoma
SK-OV-3 ovarian = test system: SK-OV-3 ovarian
SN12C renal = test system: SN12C renal
SNB-19 CNS = test system: SNB-19 CNS
SNB-75 CNS = test system: SNB-75 CNS
SR leukemia = test system: SR leukemia
SW-620 colon = test system: SW-620 colon
T-47D breast = test system: T-47D breast
TK-10 renal = test system: TK-10 renal
U251 CNS = test system: U251 CNS
UACC-257 melanoma = test system: UACC-257 melanoma
UACC-62 melanoma = test system: UACC-62 melanoma
UO-31 renal = test system: UO-31 renal
A498 renal = test system: A498 renal
CAKI-1 renal = test system: CAKI-1 renal
CCRF-CEM leukemia = test system: CCRF-CEM leukemia
HOP-92 NSCLC = test system: HOP-92 NSCLC
NCI-H226 lung = test system: NCI-H226 lung
RXF 393 renal = test system: RXF 393 renal
SF-295 CNS = test system: SF-295 CNS

CCCCn1c(C)c(C)c2c1NN=C(C#N)S2(=O)=O
TGI (786-0 renal): > 100 µM | TGI (A549 NSCLC): > 100 µM | TGI (ACHN renal): > 100 µM | TGI (BT-549 breast): > 100 µM | TGI (COLO 205 colon): > 100 µM | TGI (DU-145 prostate): > 100 µM | TGI (EKVX NSCLC): > 100 µM | TGI (HCC-2998 colon): > 100 µM | TGI (HCT-116 colon): > 100 µM | TGI (HCT-15 colon): > 100 µM | TGI (HOP-62 NSCLC): > 100 µM | TGI (HS 578T breast): > 100 µM | TGI (HT29 colon): > 100 µM | TGI (IGROV1 ovarian): > 100 µM | TGI (K-562 leukemia): > 100 µM | TGI (KM12 colon): > 100 µM | TGI (LOX IMVI melanoma): > 100 µM | TGI (M14 melanoma): > 100 µM | TGI (MALME-3M melanoma): > 100 µM | TGI (MCF7 breast): > 100 µM | TGI (MDA-MB-231 breast): > 100 µM | TGI (MDA-MB-435): > 100 µM | TGI (MOLT-4 leukemia): > 100 µM | TGI (NCI-H23 lung): > 100 µM | TGI (NCI-H460 lung): > 100 µM | TGI (NCI-H522 lung): > 100 µM | TGI (NCI/ADR-RES ovarian): > 100 µM | TGI (OVCAR-3 ovarian): > 100 µM | TGI (OVCAR-4 ovarian): > 100 µM | TGI (OVCAR-5 ovarian): > 100 µM | TGI (OVCAR-8 ovarian): > 100 µM | TGI (PC-3 prostate): > 100 µM | TGI (RPMI-8226 leukemia): > 100 µM | TGI (SF-268 CNS): > 100 µM | TGI (SF-539 CNS): > 100 µM | TGI (SK-MEL-2 melanoma): > 100 µM | TGI (SK-MEL-28 melanoma): > 100 µM | TGI (SK-MEL-5 melanoma): > 100 µM | TGI (SK-OV-3 ovarian): > 100 µM | TGI (SN12C renal): > 100 µM | TGI (SNB-19 CNS): > 100 µM | TGI (SNB-75 CNS): > 100 µM | TGI (SR leukemia): > 100 µM | TGI (SW-620 colon): > 100 µM | TGI (T-47D breast): > 100 µM | TGI (TK-10 renal): > 100 µM | TGI (U251 CNS): > 100 µM | TGI (UACC-257 melanoma): > 100 µM | TGI (UACC-62 melanoma): > 100 µM | TGI (UO-31 renal): > 100 µM

C=CCN1C(=O)/C(=C/c2ccccc2)N=C1SC/C=C/C
TGI (786-0 renal): > 100 µM | TGI (A498 renal): > 100 µM | TGI (A549 NSCLC): > 100 µM | TGI (ACHN renal): > 100 µM | TGI (BT-549 breast): > 100 µM | TGI (CAKI-1 renal): > 100 µM | TGI (CCRF-CEM leukemia): > 100 µM | TGI (COLO 205 colon): > 100 µM | TGI (DU-145 prostate): > 100 µM | TGI (HCC-2998 colon): 76.6 µM | TGI (HCT-116 colon): > 100 µM | TGI (HCT-15 colon): > 100 µM | TGI (HOP-62 NSCLC): > 100 µM | TGI (HOP-92 NSCLC): 55.5 µM | TGI (HS 578T breast): > 100 µM | TGI (IGROV1 ovarian): > 100 µM | TGI (K-562 leukemia): > 100 µM | TGI (KM12 colon): > 100 µM | TGI (LOX IMVI melanoma): > 100 µM | TGI (M14 melanoma): > 100 µM | TGI (MCF7 breast): > 100 µM | TGI (MDA-MB-231 breast): > 100 µM | TGI (MDA-MB-435): > 100 µM | TGI (NCI-H226 lung): > 100 µM | TGI (NCI-H23 lung): > 100 µM | TGI (NCI-H460 lung): > 100 µM | TGI (NCI-H522 lung): > 100 µM | TGI (NCI/ADR-RES ovarian): > 100 µM | TGI (OVCAR-3 ovarian): > 100 µM | TGI (OVCAR-4 ovarian): > 100 µM | TGI (OVCAR-8 ovarian): > 100 µM | TGI (PC-3 prostate): 55.8 µM | TGI (RPMI-8226 leukemia): 49 µM | TGI (RXF 393 renal): 46.7 µM | TGI (SF-268 CNS): > 100 µM | TGI (SF-295 CNS): > 100 µM | TGI (SF-539 CNS): > 100 µM | TGI (SK-MEL-2 melanoma): 63 µM | TGI (SK-MEL-28 melanoma): > 100 µM | TGI (SK-MEL-5 melanoma): 47.6 µM | TGI (SK-OV-3 ovarian): > 100 µM | TGI (SN12C renal): > 100 µM | TGI (SNB-19 CNS): > 100 µM | TGI (SNB-75 CNS): > 100 µM | TGI (SR leukemia): 23.3 µM | TGI (SW-620 colon): > 100 µM | TGI (T-47D breast): > 100 µM | TGI (TK-10 renal): > 100 µM | TGI (U251 CNS): > 100 µM | TGI (UACC-257 melanoma): 74.5 µM | TGI (UACC-62 melanoma): > 100 µM | TGI (UO-31 renal): > 100 µM
